In US20140121235A1, “Method for Treating S6K-Overexpressing Cancers” (Rush University Medical Center, priority 2012, published 2014):

How the values were obtained:
[1] = cited from earlier work
A375 cells = assay: Cell proliferation assay (ATP-based Cell-Glo); settings: for inhibitory effect of A77 1726 blocked by uridine: exogenous uridine
Experimental: A375 cells were seeded in 96-well plates (2000 cells/well) and incubated the indicated concentrations of A77 1726 for 72 hr in the absence or presence of various concentrations PLX4720 (A, C) with or without uridine (200 μM) (B, D). Cell proliferation was analyzed by an ATP-based Cell-Glo assay. One representative of three experiments with similar results was shown. *p<0.01.
A375 cells were grown in complete RPMI 1640 medium supplemented with 10% fetal bovine serum. The cells were seeded in 96-well plates at the density of 2,000/well in the absence or presence of various concentrations of A77 1726, PLX4720, or uridine (200 μM). After incubation for 72 hr, cell proliferation was monitored by using an ATP-based Cell-Glo assay (Promegan, Madison, Wis.) following the manufacturer's instruction.

[2] = test system: carbomoyl-phosphate synthetase 2 (CAD) Ser-1859 phosphorylation; assay: CAD phosphorylation in A375 cells (phosphor-specific antibody); format: cell-based; settings: A375 cells, 0, 50, 100 or 200 μM for 2 hours
Experimental: FIG. 12 illustrates inhibition of carbamoyl-phosphate synthetase 2 (CAD) by A 77 1726.
The ability of […] to inhibit phosphorylation of CAD at the Ser-1859 site was tested. A375 melanoma tumor cell line cultures were pretreated with the 0, 50, 100 or 200 μM A 771726 for 2 hours. Total cell lysates were prepared and analyzed for the phosphorylation of CAD by a phosphor-specific antibody.

[3] = test system: ribosomal protein S6^S235/S236 phosphorylation; assay: Western blot of S6 phosphorylation in A375 cells; format: cell-based
Experimental: A375 cells seeded in a 6-well plate were starved in DMEM medium containing 0.5% FBS for 2 hr and treated with the indicated concentration of A77 1726 or PLX 4720 (1 μM) for another 2 hr (A) or treated with A77 1726 (100 μM) for the indicated time (B & C). Cells were harvested and analyzed for protein phosphorylation by specific antibodies as indicated. Protein loading was monitored by stripping membrane and re-probing with antibodies against non-phosphorylated proteins. […] A375 cells seeded in a 6-well plate were starved in DMEM medium containing 05% FBS for 2 hr and treated with the indicated concentration of A77 1726 in the absence or presence of uridine (200 μM). Phosphorylated and total proteins were analyzed by Western blot as described above.
A375 cells seeded in 6-well plates were starved in DMEM medium containing 0.5% FBS for 2 hr and then pre-treated with vehicle (0.1% dimethyl sulfoxide), LY294002 (10 μM) (A), PPP (1 μM) (B), or the inhibitors of the MAP kinase pathway (PLX4720, 1 μM; U0126, 10 μM; PD98059, 10 μM) (C) for 1 hr. Cells were then treated with A77 1726 (100 μM) or rapamycin (20 nM) as indicated for 2 hr. Cells were harvested and analyzed for protein phosphorylation by specific antibodies as indicated. Protein loading was monitored by stripping membrane and re-probing with antibodies against non-phosphorylated proteins.
Cells grown in 6-well plates were harvested and lysed in NP-40 lysis buffer (50 mM Tris-HCI (pH 8.0), 150 mM NaCl, 1% NP-40, 5 mM EDTA, 10 μg/ml aprotinin, 10 μg/ml leupeptin, and 1 mM phenylmethylsulfonyl fluoride). After incubation on ice for 30 min, the cell lysates were prepared by spinning down at 4° C., 15,000 rpm for 15 min. After electrophoresis and transfer to Immobolin membrane, proteins of interest were probed with their specific antibodies, followed by horseradish peroxidase-conjugated goat anti-rabbit IgG and SuperSignal Western Pico enhanced chemiluminoscence substrate (Pierce Chemical Co., Rockford, Ill.).
The PI-3 and MAP kinase pathways play an important role in cell proliferation, differentiation, and cell cycle progress. Multiple genes in these two pathways are frequently mutated and have a commanding role in driving tumorigenesis and tumor cell proliferation (2; 3). […] Here we tested whether A77 1726 affected the activation of MAP and PI-3 kinase pathways. A375 cells grown in 6-well plates were starved in the media containing 0.5% FBS for 2 hr and then treated with the indicated concentration of A77 1726. […] We next explored the effect of A77 1726 in phosphorylation of the molecules in the PI-3 kinase pathway.

[4] = mice, single dose of 35 mg/kg of leflunomide

Q: Which results are given for C/C(O)=C(\C#N)C(=O)Nc1ccc(C(F)(F)F)cc1 [A77 1726]?
A: serum half-life of A77 1726 ([1]; mice treated with leflunomide at a dose of 35 mg): 15 h; serum concentration of A77 1726 at 24 hr ([1]; mice, 24 hr after single dose of 35 mg/kg of leflunomide): 250 µM; peak serum concentration of A77 1726 [1, 4]: 500 µM; time to peak concentration of A77 1726 [1, 4]: ≤ 4 h; inhibitory effect of A77 1726 blocked by uridine (A375 cells; A77 1726 at 200 μM): about 20%; inhibitory effect of A77 1726 blocked by uridine (A375 cells; A77 1726 at 50 or 100 μM): 80%; IC50 (A375 cells; Homo sapiens, A-375, 72 hr, read-out: IC50, inhibition of A375 proliferation): ~65 µM; effect on CAD phosphorylation at Ser-1859 [2]: inhibited phosphorylation in a dose-dependent manner; effect on S6^S235/S236 phosphorylation ([3]; A375 cells, A77 1726 dose-dependent or 100 μM, rapamycin 20 nM, PPP 1 μM): inhibited; IC50 ([3]; Homo sapiens, A-375, read-out: IC50 to inhibit S6 phosphorylation in cell culture): 50 to 75 µM
